# Measured values taken from patent EP0146258A2, “Glycerol derivatives” (ONO PHARMACEUTICAL CO., LTD., priority 1983, dated 1985).
# Tested on: mice
# Experiment: Acute toxicity by intravenous administration
# Format: in vivo
# Conditions: intravenously administered to tail vein in five mice at the dose of 50 mg/kg
# Protocol: On the other hand, it was confirmed that the acute toxicity of all extent of the compounds of the present invention was more than 50 mg/kg by intravenous administration. Therefore, glycerol derivatives of the present invention may be considered to be sufficiently safe and suitable for medical use. For example, the mortality (dead/used) in glycerol derivatives of the present invention, i.e. compounds prepared in Example 1(h) and 11(a) was 0/5 and 0/5, respectively, when each glycerol compound was intravenously administered to tail vein in five mice at the dose of 50 mg/kg.
row,Compound,mortality (dead/used)
1,CCCCCCCCCCCCCCCCOCC(COCCCCCCC[N+]1(C)CCCC1)NC(C)=O (centres unmarked) [11(a)],0/5
2,CCCCCCCCCCCCCCCCOCC(COCCCCCCC[n+]1ccsc1)OCC (centres unmarked) [Example 1(h)],0/5
